Among the data in patent US8178528B2, “Histamine H3 receptor agents, preparation and therapeutic uses” (Eli Lilly and Company, priority 2005, dated 2012) are Ki values, retold here.

The term Ki denotes the dissociation constant of the complex between target and ligand, obtained from inhibition or displacement.

This test has as its target T1, H3R membranes (H3R8-expressing HEK293 cell line) (Homo sapiens, UniProt Q9Y5N1).
T1 construct: expressed in transfected cells; membranes
Kind of test: [35S] GTP gamma [S] binding assay. The conditions noted are these: agonist R(-)alpha methylhistamine. The format is biochemical. As to the method: Membranes isolated as described in (Preparation of Histamine Receptor Subtype Membranes) are used in a [35S]GTPχS functional assay. Binding of [35S]GTPχS to membranes indicates agonist activity. Compounds of the invention of Formula I or Formula II are tested for their ability to inhibit binding in the presence of agonists. Alternately, the same transfected cell lines are used for a cAMP assay wherein H3R agonists inhibit forskolin-activated synthesis of cAMP. Compounds of Formula I or Formula II are tested for their ability to permit forskolin-stimulated cAMP synthesis in the presence of agonist.
cDNA for the human histamine 3 receptor is cloned and expressed as described in (A. Preparation H1R membranes), above. Transfected cells are selected using G418 ([…]), grown, and tested for histamine binding by the SPA described above. For total binding, cells are assayed in a SPA reaction described above containing 50 mM Tris-HCL (assay buffer), pH 7.6, 1 mg wheat germ agglutinin SPA beads (Amersham Pharmacia Biotech, #RPNQ0001), and 1 nM (3H)-n-alpha-methylhistamine (NEN, NET1027) (total volume per well=200 μl). Thioperimide is added to determine non-specific binding. […]
Antagonist activity of selected compounds is tested for inhibition of [35S] […] Plates are counted in Wallac Trilux 1450 Microbeta scintillation counter for 1 minute. […]
(In general: GTPγS is a poorly hydrolysed GTP analogue; its binding reports G protein activation.)

T1 sequence (Q9Y5N1 whole entry): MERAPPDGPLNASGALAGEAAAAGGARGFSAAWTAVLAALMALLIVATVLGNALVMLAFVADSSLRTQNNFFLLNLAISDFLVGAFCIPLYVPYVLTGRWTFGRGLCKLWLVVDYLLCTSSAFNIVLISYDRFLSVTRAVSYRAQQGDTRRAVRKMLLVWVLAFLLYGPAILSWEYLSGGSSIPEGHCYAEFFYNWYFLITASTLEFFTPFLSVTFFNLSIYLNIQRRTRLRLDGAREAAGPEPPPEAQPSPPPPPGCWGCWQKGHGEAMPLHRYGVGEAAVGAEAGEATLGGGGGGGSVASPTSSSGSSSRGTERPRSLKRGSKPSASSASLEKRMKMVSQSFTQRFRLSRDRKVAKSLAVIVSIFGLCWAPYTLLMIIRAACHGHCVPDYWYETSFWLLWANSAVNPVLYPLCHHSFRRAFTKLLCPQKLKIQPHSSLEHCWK

Regarding `O=C(c1ccc(C2CCCCC2)cc1)N1CCC[C@H]1CN1CCCC1`, the Ki came out at 0.047 µM. For `O=C(c1ccc(S(=O)(=O)c2ccccc2)cc1)N1CCC[C@H]1CN1CCCC1`, the Ki was found to be 0.012 µM.
